From US8871946B2, “Benzimidazole-4-carboxamide derivatives, their preparation methods, pharmaceutical compositions and their uses” (Zhejiang Medicine Co., Ltd. Xinchang Pharmaceutical Factory, priority 2009, dated 2014)
In brackets after ≈: the same amount, converted by molar mass.

System: coxsackie B3 viruses
Experiment: Measures of anti-coxsackie B3 viruses activity of the compounds in Vero cells
Format: cell-based
Settings: Enterovirus B, B3, half inhibitory concentration for viruses, read-out: IC50
From the text: Measures of Anti-Coxsackie B3 Viruses Activity of the Compounds The products are applied for measures of antivirus properties of Vero cells. Refer to the results of Table 3: datum of anti-coxsackie B3 viruses activities of some compounds. […] IC50 indicates half inhibitory concentration for viruses. RBV indicates triazole nucleoside, is also called ribavirin, virazole.

Work on `NC(=O)c1ncn([C@@H]2O[C@H](CO)[C@@H](O)[C@H]2O)n1` [RBV, ribavirin, reference compound] yielded an IC50 of 354 µg/mL (≈ 1450 µM).

Same assay, conditions: half inhibitory concentration for viruses

In the case of `O=C(Nc1ccccc1F)c1cccc2[nH]c(-c3ccc([N+](=O)[O-])s3)nc12` [2-(5-nitro-2-thienyl)-1H-benzimidazole-4-(N-(2-fluorophenyl))-amide], the “IC50” value is reported as >9.25 µg/mL.

Point of comparison: `COc1ccnc(-c2nc3c(C(=O)NC(CO)C(O)c4ccc([N+](=O)[O-])cc4)cccc3[nH]2)c1` (centres unmarked) [(L)-2-(4-methoxypyridyl)-1H-benzimidazole-4-[N-(1-hydroxymethyl-2-p-nitrophenylhydroxyethyl)]amide], “IC50” value 6.3 µg/mL (≈ 13.6 µM). Against it:
- Cn1cccc1-c1nc2c(C(=O)Nc3ccccc3F)cccc2[nH]1 [2-(N-methyl-2-pyrrolyl)-1H-benzimidazole-4-(N-o-fluorophenyl)amide] — 2.1-fold higher, 13.2 µg/mL (≈ 39.5 µM)
- O=C(Nc1ccccc1F)c1cccc2[nH]c(N3CCNCC3)nc12 [2-N-piperazinyl-1H-benzimidazole-4-(N-o-fluorophenyl)amide] — within 1.5-fold, 4.8 µg/mL (≈ 14.1 µM)
- Nc1ccc(NC(=O)c2cccc3[nH]c(N4CCNCC4)nc23)cc1 [2-N-piperazinyl-1H-benzimidazole-4-(N-p-aminophenyl)amide] — the same, 6.3 µg/mL (≈ 18.7 µM)
- O=C(Nc1ccccc1F)c1cccc2[nH]c(-c3cccs3)nc12 [2-thienyl-1H-benzimidazole-4-(N-(2-fluorophenyl)-amide] — 5.9-fold lower, 1.06 µg/mL (≈ 3.14 µM)
- Nc1ccc(NC(=O)c2cccc3[nH]c(-c4cncs4)nc23)cc1 [5-thiazolyl-1H-benzimidazole-4-(N-p-aminophenyl)amide] — 2.1-fold higher, 13.5 µg/mL (≈ 40.3 µM)
- CN1CCN(C)C(c2nc3c(C(=O)NC(CO)C(O)c4ccc([N+](=O)[O-])cc4)cccc3[nH]2)C1 (centres unmarked) [(L)-2-(2-N-methyl-4-N-methylpiperazinyl)-1H-benzimidazole-4-[N-(1-hydroxymethyl-2-p-nitrophenylhydroxyethyl)]amide] — within 1.5-fold, 9.2 µg/mL (≈ 19.6 µM)
- O=C(NC(CO)C(O)c1ccc([N+](=O)[O-])cc1)c1cccc2[nH]c(-c3cnc(-c4ccccc4)nc3)nc12 (centres unmarked) [(L)-2-(2-phenyl-5-pyrimidinyl)-1H-benzimidazole-4-[N-(1-hydroxymethyl-2-p-nitrophenylhydroxyethyl)]amide] — 1.9-fold higher, 12.0 µg/mL (≈ 23.5 µM)
- O=C(NC(CO)C(O)c1ccc([N+](=O)[O-])cc1)c1cccc2[nH]c(C3CCCCN3)nc12 (centres unmarked) [(L)-2-(2-piperidinyl)-1H-benzimidazole-4-[N-(1-hydroxymethyl-2-p-nitrophenylhydroxyethyl)]amide] — 2.7-fold higher, 17.2 µg/mL (≈ 39.1 µM)
- O=C(NC(CO)C(O)c1ccc([N+](=O)[O-])cc1)c1cccc2[nH]c(-c3cnccn3)nc12 (centres unmarked) [(L)-2-(2-pyrazinyl)-1H-benzimidazole-4-[N-(1-hydroxymethyl-2-p-nitrophenylhydroxyethyl)]amide] — 2.7-fold lower, 2.3 µg/mL (≈ 5.29 µM)
- O=C(NC(CO)C(O)c1ccc([N+](=O)[O-])cc1)c1cccc2[nH]c(-c3ccccn3)nc12 (centres unmarked) [(L)-2-(2-pyridyl)-1H-benzimidazole-4-[N-(1-hydroxymethyl-2-p-nitrophenylhydroxyethyl)]amide] — 3.6-fold lower, 1.76 µg/mL (≈ 4.06 µM)
- O=C(NC(CO)C(O)c1ccc([N+](=O)[O-])cc1)c1cccc2[nH]c(-c3ncccn3)nc12 (centres unmarked) [(L)-2-(2-pyrimidinyl)-1H-benzimidazole-4-[N-(1-hydroxymethyl-2-p-nitrophenylhydroxyethyl)]amide] — 1.6-fold higher, 9.8 µg/mL (≈ 22.6 µM)
- O=C(NC(CO)C(O)c1ccc([N+](=O)[O-])cc1)c1cccc2[nH]c(-c3ccc[nH]3)nc12 (centres unmarked) [(L)-2-(2-pyrrolyl)-1H-benzimidazole-4-[N-(1-hydroxymethyl-2-p-nitrophenylhydroxyethyl)]amide] — within 1.5-fold, 5.3 µg/mL (≈ 12.6 µM)
- O=C(NC(CO)C(O)c1ccc([N+](=O)[O-])cc1)c1cccc2[nH]c(-c3cccs3)nc12 (centres unmarked) [(L)-2-(2-thienyl)-1H-benzimidazole-4-[N-(1-hydroxymethyl-2-p-nitrophenylhydroxyethyl)]amide] — 2.5-fold higher, 15.90 µg/mL (≈ 36.3 µM)
- O=C(NC(CO)C(O)c1ccc([N+](=O)[O-])cc1)c1cccc2[nH]c(-c3cc(O)c(O)c(O)c3)nc12 (centres unmarked) [(L)-2-(3,4,5-trihydroxyphenyl)-1H-benzimidazole-4-[N-(1-hydroxymethyl-2-p-nitrophenylhydroxyethyl)]amide] — 1.6-fold higher, 10.2 µg/mL (≈ 21.2 µM)
- Cc1cc(C)c(-c2nc3c(C(=O)NC(CO)C(O)c4ccc([N+](=O)[O-])cc4)cccc3[nH]2)[nH]1 (centres unmarked) [(L)-2-(3,5-dimethyl-2-pyrrolyl)-1H-benzimidazole-4-[N-(1-hydroxymethyl-2-p-nitrophenylhydroxyethyl)]amide] — within 1.5-fold, 8.6 µg/mL (≈ 19.1 µM)
- O=C(NC(CO)C(O)c1ccc([N+](=O)[O-])cc1)c1cccc2[nH]c(-c3cccnn3)nc12 (centres unmarked) [(L)-2-(3-pyridazinyl)-1H-benzimidazole-4-[N-(1-hydroxymethyl-2-p-nitrophenylhydroxyethyl)]amide] — within 1.5-fold, 5.8 µg/mL (≈ 13.4 µM)
- Nc1ncnc(Cl)c1-c1nc2c(C(=O)NC(CO)C(O)c3ccc([N+](=O)[O-])cc3)cccc2[nH]1 (centres unmarked) [(L)-2-(4-amino-6-chloro-5-pyrimidinyl)-1H-benzimidazole-4-[N-(1-hydroxymethyl-2-p-nitrophenylhydroxyethyl)]amide] — 2.7-fold higher, 17.2 µg/mL (≈ 35.5 µM)
- CN(C)c1ccnc(-c2nc3c(C(=O)NC(CO)C(O)c4ccc([N+](=O)[O-])cc4)cccc3[nH]2)c1 (centres unmarked) [(L)-2-(4-dimethylaminopyridyl)-1H-benzimidazole-4-[N-(1-hydroxymethyl-2-p-nitrophenylhydroxyethyl)]amide] — 1.6-fold higher, 10.2 µg/mL (≈ 21.4 µM)
- Cc1nc(-c2nc3c(C(=O)NC(CO)C(O)c4ccc([N+](=O)[O-])cc4)cccc3[nH]2)sc1N (centres unmarked) [(L)-2-(4-methyl-5-aminothiazolyl)-1H-benzimidazole-4-[N-(1-hydroxymethyl-2-p-nitrophenylhydroxyethyl)]amide] — within 1.5-fold, 8.9 µg/mL (≈ 19 µM)
- Nc1ccc(-c2nc3c(C(=O)NC(CO)C(O)c4ccc([N+](=O)[O-])cc4)cccc3[nH]2)s1 (centres unmarked) [(L)-2-(5-amino-2-thienyl)-1H-benzimidazole-4-[N-(1-hydroxymethyl-2-p-nitrophenylhydroxyethyl)]amide] — 2.7-fold lower, 2.3 µg/mL (≈ 5.07 µM)
- O=C(NC(CO)C(O)c1ccc([N+](=O)[O-])cc1)c1cccc2[nH]c(-c3ccc([N+](=O)[O-])s3)nc12 (centres unmarked) [(L)-2-(5-nitro-2-thienyl)-1H-benzimidazole-4-[N-(1-hydroxymethyl-2-p-nitrophenylhydroxyethyl)]amide] — 1.7-fold higher, 10.69 µg/mL (≈ 22.1 µM)
- COc1cccc(-c2nc3c(C(=O)NC(CO)C(O)c4ccc([N+](=O)[O-])cc4)cccc3[nH]2)n1 (centres unmarked) [(L)-2-(6-methoxypyridyl)-1H-benzimidazole-4-[N-(1-hydroxymethyl-2-p-nitrophenylhydroxyethyl)]amide] — 1.8-fold higher, 11.2 µg/mL (≈ 24.2 µM)
- Cn1cccc1-c1nc2c(C(=O)NC(CO)C(O)c3ccc([N+](=O)[O-])cc3)cccc2[nH]1 (centres unmarked) [(L)-2-(N-methyl-2-pyrrolyl)-1H-benzimidazole-4-[N-(1-hydroxymethyl-2-p-nitrophenylhydroxyethyl)]amide] — 1.8-fold higher, 11.1 µg/mL (≈ 25.5 µM)
- O=C(NC(CO)C(O)c1ccccc1[N+](=O)[O-])c1cccc2[nH]c(N3CCNCC3)nc12 (centres unmarked) [(L)-2-N-piperazinyl-1H-benzimidazole-4-[N-(1-hydroxymethyl-2-o-nitrophenylhydroxyethyl)]amide] — 1.5-fold lower, 4.2 µg/mL (≈ 9.54 µM)
- O=C(NC(CO)C(O)c1ccc([N+](=O)[O-])cc1)c1cccc2[nH]c(-c3nccs3)nc12 (centres unmarked) [(L)-2-thiazolyl-1H-benzimidazole-4-[N-(1-hydroxymethyl-2-p-nitrophenylhydroxyethyl)]amide] — 1.8-fold higher, 11.2 µg/mL (≈ 25.5 µM)
- O=C(NC(CO)C(O)c1ccc([N+](=O)[O-])cc1)c1cccc2[nH]c(-c3c[nH]c4ccccc34)nc12 [(L-)2-(3-indolyl)-1H-benzimidazole-4-[N-(1-hydroxymethyl-2-p-nitrophenylhydroxyethyl)]amide] — 1.5-fold higher, 9.6 µg/mL (≈ 20.4 µM)
